Values after ≈ are worked out from the molar mass of the structure shown.
Tests used:
Assay type in all cases: cell-based
[1] = tested on: S. aureus NCTC 4163; experiment: MIC broth microdilution, standard strain; settings: Staphylococcus aureus, NCTC4163; S. aureus NCTC 4163, standard strain, 19 h at 35 °C; read-out: minimal inhibitory concentration (MIC)
Procedure: (§1) All synthesized compounds were tested in vitro against a set of bacteria, including representative standard Gram-positive and Gram-negative rods. Compounds were screened for their minimal inhibitory concentrations (MICs). […] These three compounds were also found to be good inhibitors of the growth of Gram-negative rods: […] The antimicrobial assays were conducted using reference strains of bacteria derived from international microbe collections: American Type Culture Collection (ATCC) and National Collection of Type Culture (NCTC). The following standard strains of bacteria were used: Gram-positive-Staphylococcus aureus NCTC 4163, Staphylococcus aureus ATCC 25923, Staphylococcus aureus ATCC 6538, Staphylococcus aureus ATCC 29213, Staphylococcus epidermidis ATCC 12228, Staphylococcus epidermidis ATCC 35984, Gram-negative: Escherichia coli ATCC 25922, Pseudomonas aeruginosa ATCC 15442. Clinical strains of bacteria used in this study: Gram-positive: Staphylococcus epidermidis 5253, Staphylococcus epidermidis 4243, Staphylococcus aureus […], Staphylococcus aureus […] and Gram-negative: Escherichia coli 520, Escherichia coli 600, Klebsiella pneumoniae 510 and Pseudomonas aeruginosa 659 were obtained from the collection of the Department of Pharmaceutical Microbiology, Medical University of Warsaw, Poland and they were isolated from different biological materials taken from the patients hospitalized in the Warsaw Medical University hospitals. Antimicrobial activity was examined by the minimal inhibitory concentration (MIC) method under standard procedures provided by CLSI with some modifications. MIC was determined by the two-fold serial broth microdilution method in 96-well microtitration plates using Mueller-Hinton II broth medium (Becton Dickinson, Franklin Lakes, NJ, USA). The final inoculum of all studied bacteria was 10^6 CFU/mL (colony forming unit per milliliter). The stock solution of tested compounds was prepared in dimethyl sulfoxide (DMSO) and diluted to a maximum of 1% of solvent content with a sterile medium.

[2] = tested on: S. aureus ATCC 25923; experiment: MIC broth microdilution, standard strain; settings: Staphylococcus aureus, ATCC25923; S. aureus ATCC 25923, standard strain, 19 h at 35 °C; read-out: minimal inhibitory concentration (MIC)
Procedure: as §1

[3] = tested on: P. aeruginosa ATCC 15442; experiment: MIC broth microdilution, standard strain; settings: Pseudomonas aeruginosa, ATCC15442; P. aeruginosa ATCC 15442, standard strain, 19 h at 35 °C; read-out: minimal inhibitory concentration (MIC)
Procedure: as §1

[4] = tested on: E. coli ATCC 25922; experiment: MIC broth microdilution, standard strain; settings: Escherichia coli, ATCC25922; E. coli ATCC 25922, standard strain, 19 h at 35 °C; read-out: minimal inhibitory concentration (MIC)
Procedure: as §1

[5] = tested on: E. coli 600; experiment: MIC broth microdilution, clinical isolate; settings: Escherichia coli; E. coli 600, clinical isolate, 19 h at 35 °C; read-out: minimal inhibitory concentration (MIC)
Procedure: (§2) In the next stage of the experiment, 8 of 11 compounds were selected for a clinical strain activity evaluation against S. aureus, S. epidermidis, E. coli, K. pneumoniae, and P. aeruginosa.
(§3) The antimicrobial assays were conducted using reference strains of bacteria derived from international microbe collections: American Type Culture Collection (ATCC) and National Collection of Type Culture (NCTC). The following standard strains of bacteria were used: Gram-positive—Staphylococcus aureus NCTC 4163, Staphylococcus aureus ATCC 25923, Staphylococcus aureus ATCC 6538, Staphylococcus aureus ATCC 29213, Staphylococcus epidermidis ATCC 12228, Staphylococcus epidermidis ATCC 35984, Gram-negative: Escherichia coli ATCC 25922, Pseudomonas aeruginosa ATCC 15442. Clinical strains of bacteria used in this study: Gram-positive: Staphylococcus epidermidis 5253, Staphylococcus epidermidis 4243, Staphylococcus aureus T5592, Staphylococcus aureus T5591 and Gram-negative: Escherichia coli 520, Escherichia coli 600, Klebsiella pneumoniae 510 and Pseudomonas aeruginosa 659 were obtained from the collection of the Department of Pharmaceutical Microbiology, Medical University of Warsaw, Poland and they were isolated from different biological materials taken from the patients hospitalized in the Warsaw Medical University hospitals. […] MIC was determined by the two-fold serial broth microdilution method in 96-well microtitration plates using Mueller–Hinton II broth medium (Becton Dickinson, Franklin Lakes, NJ, USA). The final inoculum of all studied bacteria was 10^6 CFU/mL (colony forming unit per milliliter). The stock solution of tested compounds was prepared in dimethyl sulfoxide (DMSO) and diluted to a maximum of 1% of solvent content with a sterile medium.

[6] = tested on: K. pneumoniae 510; experiment: MIC broth microdilution, clinical isolate; settings: Klebsiella pneumoniae; K. pneumoniae 510, clinical isolate, 19 h at 35 °C; read-out: minimal inhibitory concentration (MIC)
Procedure: as §2, §3

[7] = tested on: P. aeruginosa 659; experiment: MIC broth microdilution, clinical isolate; settings: Pseudomonas aeruginosa; P. aeruginosa 659, clinical isolate, 19 h at 35 °C; read-out: minimal inhibitory concentration (MIC)
Procedure: as §2, §3

[8] = tested on: E. coli 520; experiment: MIC broth microdilution, clinical isolate; settings: Escherichia coli; E. coli 520, clinical isolate, 19 h at 35 °C; read-out: minimal inhibitory concentration (MIC)
Procedure: as §2, §3

[9] = tested on: S. epidermidis 4243; experiment: MIC broth microdilution, clinical isolate; settings: Staphylococcus epidermidis; S. epidermidis 4243, clinical isolate, 19 h at 35 °C; read-out: minimal inhibitory concentration (MIC)
Procedure: as §2, §3

[10] = tested on: S. aureus T5592; experiment: MIC broth microdilution, clinical isolate; settings: Staphylococcus aureus, 19 h at 35 °C, read-out: minimal inhibitory concentration (MIC)
Procedure: as §2, §3

[11] = tested on: S. aureus T5591; experiment: MIC broth microdilution, clinical isolate; settings: Staphylococcus aureus, 19 h at 35 °C, read-out: minimal inhibitory concentration (MIC)
Procedure: as §2, §3

[12] = tested on: S. epidermidis 5253; experiment: MIC broth microdilution, clinical isolate; settings: Staphylococcus epidermidis; S. epidermidis 5253, clinical isolate, 19 h at 35 °C; read-out: minimal inhibitory concentration (MIC)
Procedure: as §2, §3

Row | Compound | MIC [1] | MIC [2] | MIC [3] | MIC [4] | MIC [5] | MIC [6] | MIC [7] | MIC [8] | MIC [9] | MIC [10] | MIC [11] | MIC [12]
1 | CC1=C(C)C2(C)CC1(C)C1C(=O)N(Nc3nnnn3-c3cccc(C(F)(F)F)c3)C(=O)C12 (stereo not drawn) [Compound 1, 4,5,6,7-Tetramethyl-2-((1-(3-(trifluoromethyl)phenyl)-1H-tetrazol-5-yl)amino)-3a,4,7,7a-tetrahydro-1H-4,7-methanoisoindole-1,3(2H)-dione] | 0.2 µg/mL (≈ 0.448 µM) | 0.2 µg/mL (≈ 0.448 µM) | 12.8 µg/mL (≈ 28.7 µM) | 0.4 µg/mL (≈ 0.896 µM) | 3.2 µg/mL (≈ 7.17 µM) | 3.2 µg/mL (≈ 7.17 µM) | 1.6 µg/mL (≈ 3.58 µM) | 3.2 µg/mL (≈ 7.17 µM) | 0.8 µg/mL (≈ 1.79 µM) | 0.8 µg/mL (≈ 1.79 µM) | 0.8 µg/mL (≈ 1.79 µM) | 0.8 µg/mL (≈ 1.79 µM)
2 | CC1=C(C)C2(C)CC1(C)C1C(=O)N(Nc3nnnn3-c3ccccc3Cl)C(=O)C12 (stereo not drawn) [Compound 2, 2-((1-(2-Chlorophenyl)-1H-tetrazol-5-yl)amino)-4,5,6,7-tetramethyl-3a,4,7,7a-tetrahydro-1H-4,7-methanoisoindole-1,3(2H)-dione] | 0.4 µg/mL (≈ 0.969 µM) | 0.4 µg/mL (≈ 0.969 µM) | 25.6 µg/mL (≈ 62 µM) | 1.6 µg/mL (≈ 3.88 µM) | 1.6 µg/mL (≈ 3.88 µM) | 3.2 µg/mL (≈ 7.75 µM) | 1.6 µg/mL (≈ 3.88 µM) | 3.2 µg/mL (≈ 7.75 µM) | 0.8 µg/mL (≈ 1.94 µM) | 0.8 µg/mL (≈ 1.94 µM) | 0.8 µg/mL (≈ 1.94 µM) | 0.8 µg/mL (≈ 1.94 µM)
3 | CC1=C(C)C2(C)CC1(C)C1C(=O)N(Nc3nnnn3-c3ccccc3Br)C(=O)C12 (stereo not drawn) [Compound 3, 2-((1-(2-Bromophenyl)-1H-tetrazol-5-yl)amino)-4,5,6,7-tetramethyl-3a,4,7,7a-tetrahydro-1H-4,7-methanoisoindole-1,3(2H)-dione] | 0.1 µg/mL (≈ 0.219 µM) | 0.1 µg/mL (≈ 0.219 µM) | 16 µg/mL (≈ 35 µM) | 0.4 µg/mL (≈ 0.875 µM) | 1.6 µg/mL (≈ 3.5 µM) | 3.2 µg/mL (≈ 7 µM) | 1.6 µg/mL (≈ 3.5 µM) | 1.6 µg/mL (≈ 3.5 µM) | 0.8 µg/mL (≈ 1.75 µM) | 0.8 µg/mL (≈ 1.75 µM) | 0.8 µg/mL (≈ 1.75 µM) | 0.8 µg/mL (≈ 1.75 µM)
4 | CC1=C(C)C2(C)CC1(C)C1C(=O)N(Nc3nnnn3-c3ccc([N+](=O)[O-])cc3)C(=O)C12 (stereo not drawn) [Compound 4, 4,5,6,7-Tetramethyl-2-((1-(4-nitrophenyl)-1H-tetrazol-5-yl)amino)-3a,4,7,7a-tetrahydro-1H-4,7-methanoisoindole-1,3(2H)-dione] | 16 µg/mL (≈ 37.8 µM) | 8 µg/mL (≈ 18.9 µM) | > 256 µg/mL | 256 µg/mL (≈ 605 µM) | 256 µg/mL (≈ 605 µM) | 256 µg/mL (≈ 605 µM) | 256 µg/mL (≈ 605 µM) | 256 µg/mL (≈ 605 µM) | 32 µg/mL (≈ 75.6 µM) | 16 µg/mL (≈ 37.8 µM) | 32 µg/mL (≈ 75.6 µM) | 16 µg/mL (≈ 37.8 µM)
5 | CC1=C(C)C2(C)CC1(C)C1C(=O)N(Nc3nnnn3-c3ccccc3)C(=O)C12 (stereo not drawn) [Compound 6, 4,5,6,7-Tetramethyl-2-((1-phenyl-1H-tetrazol-5-yl)amino)-3a,4,7,7a-tetrahydro-1H-4,7-methanoisoindole-1,3(2H)-dione] | 2 µg/mL (≈ 5.28 µM) | 2 µg/mL (≈ 5.28 µM) | > 256 µg/mL | 8 µg/mL (≈ 21.1 µM) | 8 µg/mL (≈ 21.1 µM) | 16 µg/mL (≈ 42.3 µM) | 16 µg/mL (≈ 42.3 µM) | 8 µg/mL (≈ 21.1 µM) | 4 µg/mL (≈ 10.6 µM) | 4 µg/mL (≈ 10.6 µM) | 4 µg/mL (≈ 10.6 µM) | 4 µg/mL (≈ 10.6 µM)
6 | CC(C)C12C=CC(C)(CC1)C1C(=O)N(Nc3nnnn3-c3ccc([N+](=O)[O-])cc3)C(=O)C12 (stereo not drawn) [Compound 8, 4-Isopropyl-7-methyl-2-((1-(4-nitrophenyl)-1H-tetrazol-5-yl)amino)-3a,4,7,7a-tetrahydro-1H-4,7-ethanoisoindole-1,3(2H)-dione] | 8 µg/mL (≈ 18.3 µM) | 8 µg/mL (≈ 18.3 µM) | > 256 µg/mL | > 256 µg/mL | > 256 µg/mL | > 256 µg/mL | > 256 µg/mL | > 256 µg/mL | 16 µg/mL (≈ 36.6 µM) | 16 µg/mL (≈ 36.6 µM) | 16 µg/mL (≈ 36.6 µM) | 16 µg/mL (≈ 36.6 µM)
7 | CC(C)C12C=CC(C)(CC1)C1C(=O)N(Nc3nnnn3-c3ccccc3Br)C(=O)C12 (stereo not drawn) [Compound 9, 2-((1-(2-Bromophenyl)-1H-tetrazol-5-yl)amino)-4-isopropyl-7-methyl-3a,4,7,7a-tetrahydro-1H-4,7-ethanoisoindole-1,3(2H)-dione] | 64 µg/mL (≈ 136 µM) | 64 µg/mL (≈ 136 µM) | > 256 µg/mL | 128 µg/mL (≈ 272 µM) | 8 µg/mL (≈ 17 µM) | 16 µg/mL (≈ 33.9 µM) | 16 µg/mL (≈ 33.9 µM) | 8 µg/mL (≈ 17 µM) | 2 µg/mL (≈ 4.24 µM) | 4 µg/mL (≈ 8.49 µM) | 4 µg/mL (≈ 8.49 µM) | 4 µg/mL (≈ 8.49 µM)
8 | Cc1ccc(-n2nnnc2NN2C(=O)C3C(C2=O)C2(C(C)C)C=CC3(C)CC2)cc1 (stereo not drawn) [Compound 10, 4-Isopropyl-7-methyl-2-((1-(p-tolyl)-1H-tetrazol-5-yl)amino)-3a,4,7,7a-tetrahydro-1H-4,7-ethanoisoindole-1,3(2H)-dione] | 4 µg/mL (≈ 9.84 µM) | 4 µg/mL (≈ 9.84 µM) | > 256 µg/mL | 16 µg/mL (≈ 39.4 µM) | 32 µg/mL (≈ 78.7 µM) | 32 µg/mL (≈ 78.7 µM) | 32 µg/mL (≈ 78.7 µM) | 32 µg/mL (≈ 78.7 µM) | 8 µg/mL (≈ 19.7 µM) | 16 µg/mL (≈ 39.4 µM) | 16 µg/mL (≈ 39.4 µM) | 16 µg/mL (≈ 39.4 µM)

— PMC8745314, “Novel Tetrazole-Based Antimicrobial Agents Targeting Clinical Bacteria Strains: Exploring the Inhibition of Staphylococcus aureus DNA Topoisomerase IV and Gyrase” (International Journal of Molecular Sciences, 2021)
